Assay results reported in patent publication US11566047B2, “Peptide or pharmaceutically acceptable salt thereof, or prodrug thereof” (TOKYO UNIVERSITY OF PHARMACY & LIFE SCIENCES, priority 2016, dated 2023).
Peptide text beside a SMILES is read from it. R111 = not defined here

Columns and labels:
[1] = tested on: anterior tibial muscles of mdx mice; assay: Influence on anterior tibial muscles of Duchenne muscular dystrophy model mdx mice (muscle weight); type: in vivo; settings: mdx male mice aged 5 weeks; 40 μL of 0.75 mM intramuscular, again after 2 weeks; necropsy after further 4 weeks; vs saline leg; average of three mice
Method: Regarding PDM-46 prepared in Synthesis Example 18, evaluation was performed by the following method in order to check the muscle mass increasing effect in vivo.
PDM-46 was dissolved in saline to become 0.75 mM. 40 μL of PDM-46 was intramuscularly administered into the left leg anterior tibial muscles of anesthetized mdx male mice aged 5 weeks (purchased from CLEA Japan, Inc.) (as a control, 40 μL of saline was intramuscularly administered into the right leg anterior tibial muscles). After 2 weeks, the same amount of PDM-46 was administered to the same site again. After further 4 weeks, the mice were subjected to necropsy, the anterior tibial muscles were excised from the both legs, and the weight thereof was measured.

[2] = molecular target: T1, myostatin (Homo sapiens, UniProt O14793); assay: cell-based; settings: HEK293, read-out: luciferase activity (relative; myostatin without test sample = 100%)
T1 sequence (O14793 267-375): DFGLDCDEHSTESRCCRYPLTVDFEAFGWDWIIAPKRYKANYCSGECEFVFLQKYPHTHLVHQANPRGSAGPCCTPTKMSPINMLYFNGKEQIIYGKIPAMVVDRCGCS
Method: Human embryo kidney cell HEK293 cells were cultured in a 5% (v/v) CO2 incubator set to 37° C. using DMEM (NACALAI TESQUE, INC.) including a 10% (v/v) fetal bovine serum (FBS) added with a 1% (v/v) non-essential amino acid (Wako Pure Chemical Corporation).
(2) In Vitro Reporter Assay
HEK293 cells were seeded on a D-Lys-corted 96-well transparent plate (Thermo Fisher Scientific Inc.) in an amount of 2.0×10^4 cells (100 μL DMEM+10% (v/v) FBS) per well and were cultured for 24 hours.
The cells were cultured at 37° C. for 24 hours, and after the cell culture solution was replaced with serum-free DMEM, the cells were cultured for 8 hours. Incidentally, pGL4.48 [luc2P/SBE/Hygro] includes firefly luciferase reporter gene luc2P under Smad binding region (SBE) control, and when a signaling pathway by the myostatin is activated, intracellular Smad forms a complex, and the complex is bonded to SBE to promote transcription of luc2P.
The peptide as a test sample was suspended as a stock solution using DMSO to become 10 mM and stored at −30° C. Before 1 hour from addition to the culture medium, the peptide and a myostatin (Merck Millipore Corp.) were suspended with serum-free DMEM and left to stand still at room temperature (25° C.) for 20 minutes. Subsequently, a peptide with an arbitrary final concentration (0.3 to […]) and 8 ng/mL of myostatin were added to the culture medium, and then culturing was performed for 4 hours. After culturing for 4 hours, the culture solution was removed by an aspirator and the cells were washed with 1×PBS. Thereafter, Passive Lysis buffer (Promega Corporation) was added in an amount of 50 μL per well to dissolve the cells. The dissolving solution was subjected to centrifugal separation at 4500 rpm for 6 minutes under the condition of 4° C. After 20 μL of supernatant subjected to centrifugal separation was transferred to a white 96-well plate (Costar), 50 μL of Luciferase Assay Reagent (Promega Corporation) was then added, emission was detected by Luminoskan Ascent (Thermo Fisher Scientific Inc.), and a firefly luciferase activity was measured. Further, after 50 μL of Stop & Glo Buffer (Promega Corporation) was added, emission was detected by Luminoskan Ascent, and a Renilla luciferase activity was measured to be regarded as an internal control.

[3] = tested on: calf muscles of mdx mice and C57BL/6 mice; assay: Influence on calf muscles of mdx mice and C57BL/6 mice (cross-sectional areas of muscle fibers); type: in vivo
Method: Evaluation was performed by the following method in order to check the muscle mass increasing effect in vivo of nPDM-55/E31R prepared in Synthesis Example 36.
nPDM-55/E31R was dissolved in saline to become 0.75 mM. 40 μL of nPDM-55/E31R was intramuscularly administered into the calf muscles of both legs of anesthetized mdx mice and C57BL/6 mice aged 5 weeks (all mice were males, purchased from CLEA Japan, Inc.) (40 μL of saline was intramuscularly administered into the calf muscles of both legs of control mice). After 2 weeks, the same amount of nPDM-55/E31R was administered to the same site again. After further 4 weeks, the mice were subjected to necropsy, the calf muscles were excised from the both legs and transverse frozen sections (6 μm) were formed using cryostat. Regarding three sections stained with Hematoxylin-Eosin and randomly selected, cross-sectional areas of muscle fibers (200 fibers) were analyzed by a fluorescence microscope BZX700 (KEYENCE CORPORATION).

[4] = tested on: mdx mice; assay: Influence on serum creatine kinase level of mdx mice; type: in vivo; settings: mdx male mice; 40 μL of 0.75 mM intramuscular into calf muscles of both legs on day 0 and day 14
Method: Evaluation was performed by the following method in order to check the effect of nPDM-55/E31R prepared in Synthesis Example 36 to a serum creatine kinase (CK) value in mdx mice. Incidentally, 3d prepared in Synthesis Example 75 was used as Comparative Example.
nPDM-55/E31R and 3d were dissolved in saline to become 0.75 mM. 40 μL of nPDM-55/E31R was intramuscularly administered into the calf muscles of both legs of anesthetized mdx mice aged 5 weeks (all mice were males, purchased from CLEA Japan, Inc.). After 2 weeks, the same amount of nPDM-55/E31R was administered to the same site again. Serum samples were collected immediately before administration of nPDM-55/E31R and 3d (day 0, day 14) and further also collected after 4 weeks (day 42). […] From those results, it was shown that nPDM-55/E31R has an effect of continually maintaining the CK level in blood to be low as compared to 3d.

Q: “R^111-WYIESIKIQIISKLRL-NH2 (R111-WYIESIKIQIISKLRL-NH2; reading uncertain; also: printed as R^111-WYIESIKIQIISKLRL-NH2) [PDM-46, R^111 = group of Formula (4), drawing 8]” was tested. Which “increase of muscle mass of anterior tibial muscles in terms of weight” value [1] did it give?
A: about 13%

Q: CC[C@H](C)[C@H](NC(=O)[C@H](CCC(N)=O)NC(=O)[C@@H](NC(=O)[C@H](CCCCN)NC(=O)[C@@H](NC(=O)[C@H](Cc1c[nH]c2ccccc12)NC(=O)[C@H](CCCNC(=N)N)NC(=O)[C@@H](NC(=O)[C@H](Cc1ccc(O)cc1)NC(=O)[C@@H](N)Cc1c[nH]c2ccccc12)[C@@H](C)CC)[C@@H](C)CC)[C@@H](C)CC)C(=O)N[C@@H](Cc1c[nH]c2ccccc12)C(=O)N[C@@H](CO)C(=O)N[C@@H](CCCCN)C(=O)N[C@@H](CC(C)C)C(=O)N[C@@H](CCCNC(=N)N)C(=O)N[C@@H](CC(C)C)C(N)=O [nPDM-55/E31R, WYIRWIKIQIWSKLRL-NH2] (H-WYIRWIKIQIWSKLRL-NH2) was tested. Which remaining activity at 0.3 µM [2] did it give?
A: ≤ 60%

Q: What about the “cross-sectional areas of muscle fibers of calf muscles” value ([3]; mdx and C57BL/6 male mice, 40 μL of 0.75 mM intramuscular into both legs, again after 2 weeks, after further 4 weeks, vs saline mice) of the same molecule?
A: increased

Q: What about the “nature of the obtained muscular hypertrophy (analysis images)” value ([3]; mdx and C57BL/6 mice, Hematoxylin-Eosin stained sections) of the same molecule?
A: not inflammatory

Q: And the “serum creatine kinase (CK) level on day 14 versus day 0” value [4]?
A: clearly lower value

Q: And the “serum creatine kinase (CK) level on day 42” value [4]?
A: clearly lower value
